Where “and” joins values, the source holds several entries; their conditions need not be identical. Identical values can stand only once.
Tests used:
Type in all cases: cell-based
Design in all cases: GPCRome screening signal at PTGIR / GPCRome screening signal at PTH1R / GPCRome screening signal at PTH2R / GPCRome screening signal at QRFP / GPCRome screening signal at RXFP2 / GPCRome screening signal at RXFP3 / GPCRome screening signal at RXFP4 / GPCRome screening signal at S1PR2 / GPCRome screening signal at S1PR3 / GPCRome screening signal at S1PR4 / GPCRome screening signal at S1PR5 / GPCRome screening signal at SCTR / GPCRome screening signal at SSTR2 / GPCRome screening signal at SSSTR / GPCRome screening signal at SSTR4 / GPCRome screening signal at SSTR5 / GPCRome screening signal at SUCNR1 / GPCRome screening signal at TA1 / GPCRome screening signal at TAAR2 / GPCRome screening signal at TAAR5 / GPCRome screening signal at TAAR6 / GPCRome screening signal at TAAR8 / GPCRome screening signal at TACR1 / GPCRome screening signal at TACR2 / GPCRome screening signal at TACR3 / GPCRome screening signal at TBXA2R / GPCRome screening signal at TSHR / GPCRome screening signal at UTS2R / GPCRome screening signal at VIPR2 / GPCRome screening signal at GPR68 no V2 Tail / GPCRome screening signal at GRM2 / GPCRome screening signal at GRM3: reference not given here
320 non-olfactory GPCRs [1] = biological target: 320 non-olfactory GPCRs (Homo sapiens, UniProt P30872); settings: receptor SSTR1
320 non-olfactory GPCRs [2] = biological target: T1, 320 non-olfactory GPCRs (Homo sapiens, UniProt Q9HBX9); settings: receptor RXFP1
T1 construct: expressed in transfected cells; host or cells: HTLA cells

320 non-olfactory GPCRs [3] = biological target: T2, 320 non-olfactory GPCRs (Homo sapiens, UniProt P29371); settings: receptor TACR3
T2 construct: expressed in transfected cells; host or cells: HTLA cells

320 non-olfactory GPCRs [4] = biological target: T3, 320 non-olfactory GPCRs (Homo sapiens, UniProt O14804); settings: receptor TAAR5
T3 construct: expressed in transfected cells; host or cells: HTLA cells

[5] = Fig_5f, single replicate values
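Throughout, for GPCRome agonism screen response: fold over basal response of each receptor without drug.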

T1 sequence (Q9HBX9 whole entry): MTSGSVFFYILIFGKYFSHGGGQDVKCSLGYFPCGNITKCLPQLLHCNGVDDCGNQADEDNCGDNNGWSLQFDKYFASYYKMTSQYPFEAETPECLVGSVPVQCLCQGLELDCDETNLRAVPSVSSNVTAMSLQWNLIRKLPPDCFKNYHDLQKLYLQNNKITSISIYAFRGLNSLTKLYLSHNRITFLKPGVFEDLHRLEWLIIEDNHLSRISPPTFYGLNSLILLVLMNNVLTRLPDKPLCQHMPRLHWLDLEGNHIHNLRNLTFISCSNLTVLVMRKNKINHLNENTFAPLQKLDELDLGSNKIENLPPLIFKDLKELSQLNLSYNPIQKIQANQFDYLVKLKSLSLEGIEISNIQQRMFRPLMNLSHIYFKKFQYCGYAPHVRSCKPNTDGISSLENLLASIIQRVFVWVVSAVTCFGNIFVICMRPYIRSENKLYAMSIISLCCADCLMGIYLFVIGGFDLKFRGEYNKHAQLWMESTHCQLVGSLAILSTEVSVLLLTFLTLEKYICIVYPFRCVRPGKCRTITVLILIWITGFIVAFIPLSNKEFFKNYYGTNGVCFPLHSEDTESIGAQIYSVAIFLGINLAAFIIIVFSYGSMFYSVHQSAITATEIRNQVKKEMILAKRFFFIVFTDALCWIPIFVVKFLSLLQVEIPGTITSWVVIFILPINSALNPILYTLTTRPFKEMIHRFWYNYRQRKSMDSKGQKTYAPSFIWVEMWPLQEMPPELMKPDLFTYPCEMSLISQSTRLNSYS
T2 sequence (P29371 whole entry): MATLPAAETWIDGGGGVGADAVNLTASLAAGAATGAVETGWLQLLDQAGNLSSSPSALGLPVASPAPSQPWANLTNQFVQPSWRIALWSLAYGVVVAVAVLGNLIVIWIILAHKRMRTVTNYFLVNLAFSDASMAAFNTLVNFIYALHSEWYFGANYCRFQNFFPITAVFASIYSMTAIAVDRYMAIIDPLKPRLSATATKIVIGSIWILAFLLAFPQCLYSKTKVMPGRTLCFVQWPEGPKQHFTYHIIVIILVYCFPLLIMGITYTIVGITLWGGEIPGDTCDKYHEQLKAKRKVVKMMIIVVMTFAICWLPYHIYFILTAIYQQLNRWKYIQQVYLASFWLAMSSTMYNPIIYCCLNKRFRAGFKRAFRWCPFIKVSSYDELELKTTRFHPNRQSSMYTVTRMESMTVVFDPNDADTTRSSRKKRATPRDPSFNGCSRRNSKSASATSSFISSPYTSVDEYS
320 non-olfactory GPCRs (Homo sapiens, UniProt P30872), sequence (P30872 whole entry): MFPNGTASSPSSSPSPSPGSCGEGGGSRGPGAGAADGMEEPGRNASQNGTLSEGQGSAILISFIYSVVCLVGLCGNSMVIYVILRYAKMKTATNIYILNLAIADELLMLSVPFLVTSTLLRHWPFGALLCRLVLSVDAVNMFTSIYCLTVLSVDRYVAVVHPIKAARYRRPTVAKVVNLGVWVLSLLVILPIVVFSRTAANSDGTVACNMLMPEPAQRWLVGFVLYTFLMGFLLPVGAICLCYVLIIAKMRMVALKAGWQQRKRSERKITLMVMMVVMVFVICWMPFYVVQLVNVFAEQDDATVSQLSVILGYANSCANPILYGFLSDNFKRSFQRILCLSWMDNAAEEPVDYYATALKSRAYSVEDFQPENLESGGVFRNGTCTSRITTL
T3 sequence (O14804 whole entry): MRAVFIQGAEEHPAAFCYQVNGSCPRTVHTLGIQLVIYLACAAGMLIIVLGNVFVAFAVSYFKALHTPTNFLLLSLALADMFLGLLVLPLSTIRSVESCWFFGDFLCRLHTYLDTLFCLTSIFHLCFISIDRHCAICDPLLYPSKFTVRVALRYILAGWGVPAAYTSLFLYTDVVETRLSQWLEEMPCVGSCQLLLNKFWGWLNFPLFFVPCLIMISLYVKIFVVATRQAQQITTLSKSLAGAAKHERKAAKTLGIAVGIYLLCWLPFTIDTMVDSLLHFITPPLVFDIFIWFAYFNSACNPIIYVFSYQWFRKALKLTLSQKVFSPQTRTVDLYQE

GPCRome screening signal at SSTR1 (320 non-olfactory GPCRs [1]; [5]) | GPCRome screening signal at RXFP1 (320 non-olfactory GPCRs [2]; [5]) | GPCRome screening signal at TACR3 (320 non-olfactory GPCRs [3]; [5]) | GPCRome screening signal at TAAR5 (320 non-olfactory GPCRs [4]; [5]) | SMILES | GPCRome agonism screen response (320 non-olfactory GPCRs [1]; replicate values, Fig_4g) | GPCRome agonism screen response (320 non-olfactory GPCRs [2]; replicate values, Fig_4g) | GPCRome agonism screen response (320 non-olfactory GPCRs [3]; replicate values, Fig_4g) | GPCRome agonism screen response (320 non-olfactory GPCRs [4]; replicate values, Fig_4g)
2.563 and 1.311 and 1.193 and 0.9402 | 1.526 and 1.245 and 1.665 and 0.7058 | 1.15 and 1.023 and 1.051 and 0.8328 | 1.144 and 1.4451 and 1.369 and 1.654 | CCOc1ccccc1CCC(C)NCC1(O)CCCCC1.Cl (racemic) [Fig_5f] | – | – | – | –
– | – | – | – | CCOc1cccc2cc(C(C)NCC3(O)CCCCC3)oc12 (centres unmarked) [O4LE6] | 1.245 and 0.3022 and 1.123 and 1.305 | 1.294 and 0.8675 and 1.5976 and 1.234 | 1.119 and 1.001 and 1.104 and 0.992 | 1.083 and 1.815 and 1.566 and 2.161
